The record followed here is patent US9149539B1, “Crystalline naloxol-PEG conjugate” (priority 2010, dated 2015).

The data set can be described thus: Moisture uptake by dynamic vapor sorption (DVS). The data set is classed as physicochemical.

For mPEG7-O-naloxol phosphate salt, the “Hysteresis between adsorption and desorption (DVS)” value (desorption) is listed as “no hysteresis”. For the same substance, the “Moisture uptake, DVS isotherm curve” value (whole isotherm) is “continuous (exponential) moisture uptake from the start”.
